Measurements: US5993860A, “NSADI delivery employing a powdered hydrocolloid gum obtainable from higher plants” (Venture Lending, priority 1997, dated 1999)
Values joined by “and” are separate entries in the source; they are usually repeats but may differ in a detail not shown here. Identical values can stand only once.

Experiments:
[1] = aspirin-induced gastric ulcer model in rats (ulcer severity grade); type: in vivo, rat (Sprague-Dawley male)
Procedure: Tests were conducted in the aspirin-induced gastric ulcer model. Rats were dosed as indicated below. Five hours after dosing, rats were sacrificed and stomachs were examined for the presence of gastric lesions. A total of 6 treatments were tested. Each treatment was tested in 12 rats. The treatments were prepared immediately prior to use. The aspirin treatments were prepared by suspending 2.00 grams of fine mesh aspirin in 100 ml water (plus 0.1% Tween 80) and then adding the specified amount (i.e. 0, 0.10, 1.00, or 5.00 grams) of Guar gum. The Guar gum 5.0% alone treatment was prepared as above except the aspirin was omitted. All dosing preparations were warmed to about 100° C.; uniformity of suspensions was ensured by constant stirring. Sprague-Dawley male rats, 148 to 190 grams, were individually-housed under standard Vivarium conditions. After arrival, rats were allowed to acclimate in house for a minimum of 5 days before initiation of testing. Rats were fasted (water ad libitum) for 18 hours prior to testing. Treatments 1-6, assigned to rats in random fashion, were administered orally (gavage) at the rate of 10 ml/kilogram (kg). Five hours after treatment, each rat was sacrificed by carbon dioxide inhalation. The abdomen was opened. The stomach was removed, opened along the greater curvature, examined for the presence of lesions, and assigned a severity grade according to the following scale: 0 No lesions 1<5 lesions, at least 1 lesion<2 mm 2<5 lesions, at least 1 lesion>2 mm 3 5 to 10 lesions, all<2 mm 4 5 to 10 lesions, at least 1 lesion>2 mm 5 >10 lesions, all<2 mm 6 >10 lesions, at least 1 lesion>2 mm In order to eliminate bias and reduce subjective variation, all ulcer grading in the study was performed in single-blind fashion by the same well-experienced grader. For each stomach, the severity score was recorded. Data are expressed using the absolute values. […] Statistical significance of differences between means were determined by analysis of variance followed by Neumann-Kuels multiple comparisons test.

[2] = ketoprofen-induced gastric damage in rats; type: in vivo, rat (male Wistar); conditions: ketoprofen 100 mg/kg oral; 5 h after dosing; 15 rats
Procedure: In this example a dose of ketoprofen (100 mg/kg) was administered to rats to induce gastric damage and guar gum was coadministered to determine its effect. Both the ketoprofen and guar gum were administered as an aqueous mixture.
Seventy-five male Wistar rats each approximately 6 weeks of age and ranging in weight from 206 g to 233 g were housed 5 to a cage in suspended polypropylene cages with wire grid floors. The rats had access to tap water and were fed a standard certified laboratory rodent diet (RM1(E)SQC), ad libitam. Lighting in the animal room was controlled to give 12 hours light (0700-1900 hours) and 12 hours dark each day. The room temperature and relative humidity controls were set at 21° C.±3° C. and 50% ±15% respectively.
After an acclimatization period of 3 days following the day of arrival, the animals were randomized into groups according to bodyweight using random numbers tables so that the group mean bodyweights were approximately equal. Including the day of randomization, there were a further 3 days of acclimatization prior to dosing. […]
Five hours after dosing, the rats were sacrificed by carbon dioxide asphyxiation and the stomachs removed. Each stomach was opened along the greater curvature and examined macroscopically for damage in the glandular portion; any damage was subjectively scored using the following system: […]

Structure (SMILES)	Ulcer Grade, mean ([1]; Table 5, severity scale 0-6, 5 h after oral gavage, 10 ml/kg, 12 rats)	stomachs with ulcer severity scores of 5 or greater ([1]; number of rats of 12)	mean ulcer severity (mean ± s.e.m.) ([1]; severity scale 0-6, 5 h after dosing)	Group mean score for gastric damage [2]
CC(=O)Oc1ccccc1C(=O)O [Aspirin, acetylsalicylic acid]	5.8	11 of the 12	5.8 and 5.75±0.18	
CC(C(=O)O)c1cccc(C(=O)c2ccccc2)c1 (stereo not shown) [Ketoprofen]				13.1
